Assay results from article PMC8424217 (The Journal of Biological Chemistry, 2021).
Peptide text beside a SMILES is read from it. * marks the point of attachment. Palmitoyl = CCCCCCCCCCCCCCCC(=O)*

Assays:
Assay type in all cases: cell-based
hUT [1] = target: T1, hUT (Homo sapiens, UniProt Q9UKP6); assay: β-arrestin 1 conformational change, BRET biosensor, HEK 293-hUT cells; design: expressed in transfected cells; conditions: for Emax: percentage of the activation induced by hUII (10^−6 M), n = 3–5
T1 sequence (Q9UKP6 1-389): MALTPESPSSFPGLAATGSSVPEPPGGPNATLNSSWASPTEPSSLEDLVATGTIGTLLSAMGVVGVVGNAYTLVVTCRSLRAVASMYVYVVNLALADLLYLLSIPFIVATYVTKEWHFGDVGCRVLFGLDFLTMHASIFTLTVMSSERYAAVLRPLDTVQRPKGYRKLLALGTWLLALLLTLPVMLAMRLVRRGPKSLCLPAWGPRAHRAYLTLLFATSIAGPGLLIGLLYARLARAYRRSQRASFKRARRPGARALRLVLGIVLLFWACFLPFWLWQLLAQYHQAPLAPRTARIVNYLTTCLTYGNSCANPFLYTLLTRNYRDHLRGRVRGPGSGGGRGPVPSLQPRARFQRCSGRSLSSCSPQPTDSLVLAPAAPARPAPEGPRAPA
Protocol: Figure 6 Signaling signature of hUT-pepducins following hUT receptor activation. […] Each curve represents mean ± SEM of at least three independent concentration-response experiments performed in triplicate.
HEK 293-hUT cells were grown in DMEM culture media supplemented with 10% foetal bovine serum, HEPES, sodium pyruvate, and G418 (200 μg mL^−1). Passages were performed when cells reached 80% of confluency. Cells were initially plated in 96-well plates at a density of 10,000 cells/well. The following day, the medium is replaced with DMEM culture media supplemented with 2.5% foetal bovine serum (FBS), and 12 h later, cells were transiently transfected with 25 ng/well of a Gq-polycistronic, 25 ng/well of a G12-polycistronic BRET sensor, 25 ng/well of a G13-polycistronic BRET sensor, 2.5 ng/well pIRESB RLucII-ERK-NLS-GFP BRET sensor, 2.5 ng β-arrestin 1-polycistronic BRET sensor, or 2.5 ng β-arrestin 2-polycistronic BRET sensor using Lipofectamine2000 at a ratio of 3:1 (Lipofectamine/plasmid DNA) in serum-free Opti-MEM ([44], [81]). Sixteen hours posttransfection, medium was replaced with DMEM supplemented with 10% FBS, HEPES, sodium pyruvate and G418 (200 μg mL^−1) and cell growth was resumed for another 16 h. Cells were washed with 150 μl PBS solution supplemented with 0.1% of glucose and then incubated with 80 μl of this solution for 2 h. Then, to evaluate Gq and G12 activation, 10 μl of a 1/20 dilution (diluted before use) of coelenterazine 400A (stock at 1 mM in ethanol) in Kreb's buffer and 10 μl of the 10× appropriate concentration of peptide were added, and the luminescence was evaluated with an Infinite M1000 PRO. […] Readings were performed after 5 min using an Infinite M1000 PRO. Filters were set at 410 nm and 515 nm for detecting the Renilla luciferase II (RlucII, donor) and green fluorescent protein 10 (GFP10, acceptor) light emission, respectively. BRET ratio was determined by calculating the ratio of the light emitted by GFP10 over the light emitted by the RlucII.

hUT [2] = target: T1, hUT; assay: ERK1/2 phosphorylation, western blot, CHO-hUT cells; design: expressed in transfected cells; host or cells: CHO-K1 cells stably expressing hUT (gift from H. Vaudry and C. Dubessy, University of Rouen); conditions: for effect of PTX on ERK1/2 phosphorylation induced by the peptide / time of maximal ERK1/2 phosphorylation / EC50 / effect of AG1478 (EGFR inhibitor) on ERK1/2 phosphorylation induced by the peptide / effect of U73122 (PLC inhibitor) on ERK1/2 phosphorylation induced by the peptide / time of second peak of ERK1/2 phosphorylation: CHO-hUT; for effect of PTX on ERK1/2 phosphorylation induced by the peptide: PTX 200 ng/ml 24 h pretreatment; for effect of PTX on ERK1/2 phosphorylation induced by the peptide / effect of AG1478 (EGFR inhibitor) on ERK1/2 phosphorylation induced by the peptide / effect of U73122 (PLC inhibitor) on ERK1/2 phosphorylation induced by the peptide: pepducin 10^−6 M, 5 min, n = 3; for time of maximal ERK1/2 phosphorylation / time of second peak of ERK1/2 phosphorylation: pepducins 10^−6 M; for time of maximal ERK1/2 phosphorylation: hUII 10^−7 M; for EC50: 5 min stimulation, mean ± SEM of at least three independent experiments in triplicate, read-out: ERK1/2 phosphorylation pEC50 (converted); for effect of AG1478 (EGFR inhibitor) on ERK1/2 phosphorylation induced by the peptide: AG1478 5 μM 30 min pretreatment; for effect of U73122 (PLC inhibitor) on ERK1/2 phosphorylation induced by the peptide: U73122 1 μM 60 min pretreatment
Protocol: Figure 3 IP1production (A and B) and ERK1/2phosphorylation (C and D) kinetics and concentration dependence following hUT activation. IP1 production was evaluated using the IP-One terbium immunoassay kits while ERK1/2 phosphorylation was measured by western blot in CHO-K1 cells stably expressing hUT. […] Each curve represents the mean ± SEM of at least three independent experiments performed in triplicate.
ERK1/2 phosphorylation was measured by western blot. […] Quantification of ERK1/2 phosphorylation level was performed in three independent experiments done in triplicate (mean ± SEM, n = 3, ∗∗∗p < 0.001, ∗∗p < 0.01, or ∗p < 0.05, versus control).
CHO cells stably expressing hUT (CHO-hUT; gift from Drs H. Vaudry et C. Dubessy, University of Rouen, France) were grown in 12-well plates to 70–80% confluence and starved for 6 h in a serum-free medium. […] Briefly, HEK 293-hUT cells, grown in 12-well plates to 70–80% confluence, were starved for 6 h in a serum-free medium. […] Cells were then rinsed twice with ice-cold PBS and homogenized in 0.5 ml of lysis buffer (20 mM Tris, 150 mM NaCl, 1 mM EDTA, 1 mM EGTA, 1% Triton X-100, 2.5 mM sodium pyrophosphate, 1 mM β-glycerolphosphate, 1 mM Na3VO4, 1 μg mL^−1 leupeptin, 1 mM PMSF, 1 mM DTT) at 4 °C. Insoluble material was removed by centrifugation at 12,000 rpm for 30 min. The extract was treated with Laemmli sample buffer and heated for 5 min at 95 °C. Aliquots were assayed for protein concentration (BioRad) and an equal amount of total protein was subjected to 12% SDS–PAGE, followed by transfer to a nitrocellulose membrane. The membrane was blocked and then probed with primary antibody (phospho-p44/42 MAPK) at the optimal dilution (1/2000) with gentle agitation overnight at 4 °C. After washing with TTBS, membranes were then incubated with secondary antibody, conjugated with horseradish peroxidase (anti-rabbit HRP) diluted in TBST containing 5% skim milk (w/v) for 1 h at room temperature. Immunoreactive species were visualized by enhanced chemiluminescence using X-ray film and Thermo Scientific SuperSignal chemiluminescent substrates according to the manufacturer's instructions. Films were digitized and the intensity of the immunoreactive bands determined using Quantity One software from Bio-Rad.

CHO-K1 cells = assay: IP1 production, IP-One terbium immunoassay, untransfected CHO-K1 cells; conditions: CHO-K1, 40 min incubation
Protocol: This assay, performed with the IP-One terbium immunoassay kits from Cisbio, was used according to the manufacturer recommendation and as previously described ([43]). Briefly, CHO-hUT cells were grown in 10-cm dishes for 24 h. The cells were then starved without serum. The next day, cells were washed once with PBS and collected in PBS containing 20 mM EDTA. For the assay, 80,000 cells per well (96-well plate) were used. […] IP1-d2 and anti-IP1-cryptate were added for an additional 2 h at room temperature. Plates were read on a Flexstation 3 microplate reader.
[Trp1, Leu2]hUT-Pep3. IP1 production was evaluated using the IP-One terbium immunoassay
kitsinCHO-K1 cells.Each histogram represents the mean ± SEM of atleast threeindependent
experiments performed in triplicate.
(also on this page, place not known: (% Maximal Response) FigureS3.IP1productioninCHO-K1cellsfollowingtreatmentbyhUII,hUT-Pep2or [Trp1,Leu2]hUT-Pep3.IP1productionwasevaluatedusingtheIP-Oneterbiumimmunoassay kitsinCHO-K1cells.Eachhistogramrepresentsthemean±SEMofatleastthreeindependent experimentsperformedintriplicate.)

SMILES	Emax (hUT [1]; 15 min at RT, mean ± SEM) [%]	Emax (hUT [2]) [%]	effect of PTX on ERK1/2 phosphorylation induced by the peptide (hUT [2])	time of maximal ERK1/2 phosphorylation (hUT [2]) [min]	IP1 production in untransfected CHO-K1 cells (CHO-K1 cells)	EC50 (hUT [1]; 15 min at RT, mean ± SEM, n = 3–5, read-out: β-arrestin 1 pEC50 (converted)) [nM]	EC50 (hUT [2]) [nM]	effect of AG1478 (EGFR inhibitor) on ERK1/2 phosphorylation induced by the peptide (hUT [2])	effect of U73122 (PLC inhibitor) on ERK1/2 phosphorylation induced by the peptide (hUT [2])	time of second peak of ERK1/2 phosphorylation (hUT [2])	β-arrestin 1 activation (in words) (hUT [1])
CC(C)[C@H](NC(=O)[C@@H]1CSSC[C@H](NC(=O)[C@H](CC(=O)O)NC(=O)[C@@H]2CCCN2C(=O)[C@@H](NC(=O)[C@@H](N)CCC(=O)O)[C@@H](C)O)C(=O)N[C@@H](Cc2ccccc2)C(=O)N[C@@H](Cc2c[nH]c3ccccc23)C(=O)N[C@@H](CCCCN)C(=O)N[C@@H](Cc2ccc(O)cc2)C(=O)N1)C(=O)O [hUII, urotensin II, reference compound]	104 ± 4	102 ± 2	substantially reduced, or even suppressed	5							
CCCCCCCCCCCCCCCC(=O)N[C@@H](Cc1c[nH]c2ccccc12)C(=O)N[C@@H](CC(C)C)C(=O)N[C@@H](CO)C(=O)N[C@@H](CCC(N)=O)C(=O)N[C@@H](CCCNC(=N)N)C(=O)N[C@@H](C)C(=O)N[C@@H](CO)C(=O)N[C@@H](Cc1ccccc1)C(=O)N[C@@H](CCCCN)C(=O)N[C@@H](CCCNC(=N)N)C(=O)N[C@@H](C)C(=O)N[C@@H](CCCNC(=N)N)C(=O)N[C@@H](CCCNC(=N)N)C(N)=O [[Trp^1, Leu^2]hUT-Pep3] (Palmitoyl-WLSQRASFKRARR-NH2)	~18	56 ± 2	completely prevented	5	not untransfected CHO-K1 cells	8.32	200	significantly reduced the ability of both hUT-derived pepducins to induce ERK1/2 phosphorylation	completely prevented	60 min	
CCCCCCCCCCCCCCCC(=O)N[C@@H](CCCNC(=N)N)C(=O)N1CCC[C@H]1C(=O)N[C@@H](CC(C)C)C(=O)N[C@@H](CC(=O)O)C(=O)N[C@H](C(=O)N[C@H](C(=O)N[C@@H](CCC(N)=O)C(=O)N[C@@H](CCCNC(=N)N)C(=O)N1CCC[C@H]1C(=O)N[C@@H](CCCCN)C(=O)NCC(=O)N[C@@H](Cc1ccc(O)cc1)C(N)=O)C(C)C)[C@@H](C)O [hUT-Pep2] (Palmitoyl-RPLDTVQRPKGY-NH2)		34 ± 2	unaffected by PTX treatment	5	not untransfected CHO-K1 cells		55	significantly reduced the ability of both hUT-derived pepducins to induce ERK1/2 phosphorylation	only partially affected by the PLC inhibitor	a similar pattern was not observed for hUT-Pep2	inactive
